Experimental findings from patent US11881606B2, “Conductive materials to drive bacterial carbon dioxide fixation” (The Government of the United States of America, as …, priority 2019, dated 2024) are described below.

“And” between values parts separate entries of the source, which are not always exact repeats. Equal entries are not always repeated.

Test [1] concerns Biocathode MCL. The experiment in a line: Effect of antibiotics and cyanide on the open circuit potential (OCP) of electrodes with Biocathode MCL biofilm. The class given is cell-based. Here is the method: FIGS. 3A and 3B illustrate the effect of the addition of antibiotics on the open circuit potential (OCP). […]
(§1) Biocathode MCL was cultivated in artificial seawater (ASW) medium containing 27.50 g NaCl, 3.80 g MgCl2·6H2O, 6.78 g MgSO4·H2O, 0.72 g KCl, 0.62 g NaHCO3, 5.58 g CaCl2·H2O, 1.00 g NH4Cl, 0.05 g K2HPO4, and 1 ml Wolfe's Trace Mineral Solution per liter. The NaHCO3 was autoclaved in a separate sealed bottle and added after cooling to avoid precipitation. The medium was adjusted to a pH between 6.5 and 6.8 by briefly bubbling with 100% CO2. Source cultures were continuously maintained in 2 liter, 3-electrode reactors with carbon cloth as working and counter electrodes. The working electrode was poised at 0.310 V SHE (standard hydrogen electrode).
(§2) For these experiments, bioelectrochemical systems (BES) were 175 ml glass electrochemical reactors (Pine Instruments, Grove City, Pa.). Working electrodes were either 10.5 cm^2 graphite flags (Tri-Gemini, Hillside, Ill.) or carbon cloth (Fuel Cell Earth, Woburn, Mass.) cut to roughly 3.5×1.5 cm for an area of 10.5 cm^2. Counter electrodes were carbon cloth electrodes cut to approximately 3.5×1.5 cm. Graphite flags were sanded down prior to cleaning. Both carbon cloth and graphite flag electrodes were soaked overnight in 1 M hydrochloric acid, then rinsed and soaked overnight in ultrapure deionized water (MilliQ, Millipore-Sigma, Burlington, Mass.). Electrodes were suspended in the reactors from titanium wires, attached by titanium screws. The reference electrodes for the experiments were 3 M KCl Ag/AgCl (BASI, West Lafayette, Ind.) washed in bleach and rinsed in sterile ultrapure deionized water. All potentials are reported here as vs. SHE by adding 0.21V to the experimental potentials vs. Ag/AgCl.
Once assembled, the BES were maintained at 30° C. using water jackets and stirred using small stir bars and stir plates (VWR, Radnor, Pa., USA). The electrodes were connected to a multichannel potentiostat (Biologic, Seyssinet-Pariset, France), which was used to record cyclic voltammograms at fast (20 mV/S) and slow (0.2 mV/S) scan rates, and then to monitor the OCP or, for experiments with set potential, to hold the potential at 0.310 V and monitor current production. After the signal stabilized, the reactors were inoculated with 1 ml of initial inoculum diluted 10^−3 or 10^−4-fold. Based on the cell counts of filtered inoculum, reactors in experiment 1 were inoculated with ca. 30 or ca. 300 cells, while reactors in experiment 2 were inoculated with ca. 110 or ca. 1100 cells and reactors in experiment 3 were inoculated with 700 cells.
The effect of antibiotics on the open circuit potential was examined in order to determine whether the maintenance of the OCP was dependent on metabolically active cells. Because ampicillin kills only dividing cells (by interfering with cell wall formation^21), while kanamycin kills by interfering with translation machinery (killing bacteria that are actively manufacturing proteins^21), these antibiotics were used to determine the rough metabolic state of the cells.
To test how long the cells remained active and sensitive to antibiotics, reactors were incubated for 26 days before antibiotic additions. The inoculated reactors maintained an OCP close to 0.50 V vs. SHE during the 26-day incubation. […] Cyanide, which inhibits cytochrome function, caused an immediate drop in potential in both old and young reactors (FIGS. 3A and 3B).

In test [2] the test system is Biocathode MCL. As to the kind of experiment: Current production by Biocathode MCL on electrode set at 0.310 V with antibiotics. The class given is cell-based. The note with it: ampicillin at 100 μg/ml; electrode potential set at 0.310 V. Here is the method:
as §1
as §2, with “The reference electrodes for the experiments were 3 M KCl Ag/AgCl (BASI, West Lafayette, Ind.) washed in bleach and rinsed in sterile ultrapure deionized water. All potentials are reported here as vs. SHE by adding 0.21V to the experimental potentials vs. Ag/AgCl.” left out

[3] abbreviates: added 10 days after inoculation.

`CC1(C)S[C@@H]2[C@H](NC(=O)[C@H](N)c3ccccc3)C(=O)N2[C@H]1C(=O)O` [ampicillin]: in the test on Biocathode MCL [1] (setting [3]), the “OCP at end of drop” value is “return to its pre-inoculation level” and the “Time until OCP began dropping” value fell in the range of 2 to 3 days. For the same molecule, the “Time until OCP reduction began” value with Biocathode MCL [1] (added 26 days after inoculation) is “two”. The “Effect on OCP” value in the test on Biocathode MCL [1] (added 26 days after inoculation, followed for two weeks) is listed as “not returning to the abiotic OCP even after two weeks”. The Current production entry in the test with Biocathode MCL [2] was “inhibited”.

Regarding `NC[C@H]1O[C@H](O[C@H]2[C@H](O)[C@@H](O[C@H]3O[C@H](CO)[C@@H](O)[C@H](N)[C@H]3O)[C@H](N)C[C@@H]2N)[C@H](O)[C@@H](O)[C@@H]1O` [kanamycin], in the test with Biocathode MCL [1] (added 10 days after inoculation, two experiments), the “Time until drop in OCP began” value was 13 h and 10 h.
